Data from patent EP0745595A1, “3-(3-Aryloxyphenyl)-1-(substituted methyl)-s-triazine-2,4,6-oxo or thiotrione herbicidal agents” (American Cyanamid Company, priority 1995, dated 1996).

Columns and labels:
Assay type in all cases: in vivo
[1] = test system: GLYCINE MAX(L) MERR. CV. WILLIAMS; assay: Postemergence herbicidal evaluation, GLXMAW (Soybean, Williams); set-up: key to GLXMAW rating / Herbicidal effect rating, GLXMAW / GLXMAW: 0-9 visual rating scale vs untreated control
Method in brief: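 Herbicidal injury to Williams soybean was assessed after a postemergence spray of two-week-old seedlings grown in jiffy flats. Compounds were dispersed in an acetone/water (50/50) mixture with 0.5% TWEEN®20 surfactant and applied at 40 psi. After four to five weeks in the greenhouse, stand, vigor, malformation, size and chlorosis were compared against a control on a 0-9 scale, and results from replicate tests were averaged.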

[2] = test system: ORYZA SATIVA, L. TEBONNET; assay: Postemergence herbicidal evaluation, ORYSAT (Rice, Tebonnet); set-up: key: 0-9 visual rating scale vs untreated control
Method in brief: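 This postemergence greenhouse test used Oryza sativa cv. Tebonnet seedlings grown about two weeks in jiffy flats. Test material in 50/50 acetone/water with 0.5% TWEEN®20 surfactant was applied through a spray nozzle at 40 psi. Four to five weeks later, stand, vigor, malformation, size, chlorosis and overall appearance were rated 0-9 relative to a control, and repeat tests were averaged.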

[3] = test system: ABUTILON THEOPHRASTI, MEDIC.; assay: Preemergence herbicidal evaluation, ABUTH (Velvetleaf); conditions: for ABUTH herbicidal rating: rated four to five weeks after treatment
Method in brief: (§1)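 Greenhouse preemergence test; treated soil cups received compound in aqueous acetone (about 0.125 to 0.50 kg/ha) right after sowing and were assessed visually 4-5 weeks later on a 0-9 scale compared with control plants.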

CASSIA OBTUSIFOLIA, L. = assay: Preemergence herbicidal evaluation, CASOB (Sicklepod); conditions: for CASOB herbicidal rating: rated four to five weeks after treatment
Method in brief: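 Preemergence herbicidal activity against sicklepod was assessed by planting seed mixed with potting soil atop about one inch of soil in pint cups. After treatment the cups were watered and handled per standard greenhouse practice. Tests ended four to five weeks later, with plant stand, vigor, malformation, size, chlorosis and overall appearance scored 0-9 relative to a control.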

CHENOPODIUM ALBUM, L. = assay: Preemergence herbicidal evaluation, CHEAL (Lambsquarters, Common); conditions: for CHEAL herbicidal rating: rated four to five weeks after treatment
Method in brief: as §1

GALIUM APARINE = assay: Preemergence herbicidal evaluation, GALAP (Galium); conditions: for GALAP herbicidal rating: rated four to five weeks after treatment
Method in brief: as §1

[4] = test system: GLYCINE MAX(L) MERR. CV. WILLIAMS; assay: Preemergence herbicidal evaluation, GLXMAW (Soybean, Williams); conditions: for GLXMAW herbicidal rating: rated four to five weeks after treatment
Method in brief: as §1

[5] = test system: TRITICUM AESTIVUM, CV. APOLLO; assay: Preemergence herbicidal evaluation, TRZAWO (Wheat, Winter, CV. APOLLO); conditions: for TRZAWO herbicidal rating: rated four to five weeks after treatment
Method in brief: as §1

ZEA MAYS L. = assay: Preemergence herbicidal evaluation, ZEAMX (Corn, Field); conditions: for ZEAMX herbicidal rating: rated four to five weeks after treatment
Method in brief: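 Preemergence herbicidal activity on field corn: seeds in potting soil were sown atop roughly one inch of soil in separate pint cups, treated, and grown under standard greenhouse care. Four to five weeks post-treatment, stand, vigor, malformation, size, chlorosis and overall appearance were compared with a control and scored 0-9.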

[6] = test system: ECHINOCHLOA ORYZOIDES (ARD.)FRITSCH; assay: Preemergence weed control under flooded paddy conditions, ECHORC (Watergrass (Calif.)); conditions: for Herbicidal effect rating, ECHORC: preemergence, 3-4 weeks after treatment; for ECHORC: pre-weed
Method in brief: (§2)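 In undrained pots of silt loam flooded to 1.5-3 cm, compounds are pipetted into the water before emergence at the equivalent of about 0.5, 0.25, 0.125 and 0.063 kg/ha. Plants are scored 0-9 for stand, vigor, malformation, size and chlorosis at test end (3-4 weeks).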

CYPERUS IRIA = assay: Preemergence weed control under flooded paddy conditions, CYPIR (Rice Flatsedge); conditions: for Herbicidal effect rating, CYPIR: preemergence, 3-4 weeks after treatment; for CYPIR: pre-weed
Method in brief: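 This preemergence test mimicked flooded paddy conditions: rice flatsedge propagules were sown in the upper 0.5 cm of silt loam in undrained 32 oz. containers (10.5 cm diameter), with water held 1.5 to 3 cm over the soil. After normal greenhouse care, plants were scored 0-9 for stand, vigor, malformation, size, chlorosis and appearance relative to controls.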

[7] = test system: CYPERUS SEROTINUS, ROTTB.; assay: Preemergence weed control under flooded paddy conditions, CYPSE (Flatsedge); conditions: for Herbicidal effect rating, CYPSE: preemergence, 3-4 weeks after treatment; for CYPSE: pre-weed
Method in brief: as §2

[…], PRESL. = Preemergence weed control under flooded paddy conditions, MOOVA (Monochoria); conditions: for Herbicidal effect rating, MOOVA: preemergence, 3-4 weeks after treatment; for MOOVA: pre-weed
Method in brief: as §2

SAGITTARIA PYGMAEA, L. = assay: Preemergence weed control under flooded paddy conditions, SAGPY (Arrowhead (Pygmaea)); conditions: for Herbicidal effect rating, SAGPY: preemergence, 3-4 weeks after treatment; for SAGPY: pre-weed
Method in brief: as §2

For “Methyl 3-{2-[(2-chloro-α,α,α,-trifluoro-p-tolyl)oxy]phenyl}tetrahydro-5-methyl-2,4,6-trioxo-s-triazine-1(2H)-acetate [Compound 28]”, the GLXMAW ([1]; Rate 0.063 kg/ha) was 2.5, the GLXMAW ([1]; Rate 0.125 kg/ha) was 3.5 and the GLXMAW rating ([1]; Rate 0.125 kg/ha) was 3.5. For the same substance, the GLXMAW ([1]; Rate 0.250 kg/ha) was 4.5, the GLXMAW rating ([1]; Rate 0.250 kg/ha) was 4.5 and the GLXMAW ([1]; Rate 0.500 kg/ha) was 5.0. For the same substance, the GLXMAW rating ([1]; Rate 0.500 kg/ha) was 5.0, the ORYSAT ([2]; Rate 0.063 kg/ha) was 1.5 and the ORYSAT ([2]; Rate 0.125 kg/ha) was 2.0. The ORYSAT rating ([2]; Rate 0.125 kg/ha) was 2.0, the ORYSAT ([2]; Rate 0.250 kg/ha) was 2.5 and the ORYSAT rating ([2]; Rate 0.250 kg/ha) was 2.5. It also gave an ORYSAT ([2]; Rate 0.500 kg/ha) of 3.0, an ORYSAT rating ([2]; Rate 0.500 kg/ha) of 3.0 and an ABUTH ([3]; Rate 0.125 kg/ha) of 0.0. The ABUTH herbicidal rating ([3]; Rate 0.125 kg/ha) was 0.0, the ABUTH ([3]; Rate 0.250 kg/ha) was 3.0 and the ABUTH herbicidal rating ([3]; Rate 0.250 kg/ha) was 3.0. For the same substance, the ABUTH ([3]; Rate 0.500 kg/ha) was 4.0, the ABUTH herbicidal rating ([3]; Rate 0.500 kg/ha) was 4.0 and the ABUTH ([3]; Rate 1.000 kg/ha) was 7.0. It also gave a CASOB (CASSIA OBTUSIFOLIA, L.; Rate 0.125 kg/ha) of 0.0, a CASOB herbicidal rating (CASSIA OBTUSIFOLIA, L.; Rate 0.125 kg/ha) of 0.0 and a CASOB (CASSIA OBTUSIFOLIA, L.; Rate 0.250 kg/ha) of 2.0. For the same substance, the CASOB herbicidal rating (CASSIA OBTUSIFOLIA, L.; Rate 0.250 kg/ha) was 2.0, the CASOB (CASSIA OBTUSIFOLIA, L.; Rate 0.500 kg/ha) was 1.5 and the CASOB herbicidal rating (CASSIA OBTUSIFOLIA, L.; Rate 0.500 kg/ha) was 3.0. It also gave a CASOB (CASSIA OBTUSIFOLIA, L.; Rate 1.000 kg/ha) of 3.0, a CHEAL (CHENOPODIUM ALBUM, L.; Rate 0.125 kg/ha) of 3.0 and a CHEAL herbicidal rating (CHENOPODIUM ALBUM, L.; Rate 0.125 kg/ha) of 3.0. The CHEAL (CHENOPODIUM ALBUM, L.; Rate 0.250 kg/ha) was 6.0, the CHEAL herbicidal rating (CHENOPODIUM ALBUM, L.; Rate 0.250 kg/ha) was 6.0 and the CHEAL (CHENOPODIUM ALBUM, L.; Rate 0.500 kg/ha) was 7.0. The CHEAL herbicidal rating (CHENOPODIUM ALBUM, L.; Rate 0.500 kg/ha) was 7.0, the CHEAL (CHENOPODIUM ALBUM, L.; Rate 1.000 kg/ha) was 9.0 and the GALAP (GALIUM APARINE; Rate 0.125 kg/ha) was 3.0. It also gave a GALAP herbicidal rating (GALIUM APARINE; Rate 0.125 kg/ha) of 3.0, a GALAP (GALIUM APARINE; Rate 0.250 kg/ha) of 4.0 and a GALAP herbicidal rating (GALIUM APARINE; Rate 0.250 kg/ha) of 4.0. For the same substance, the GALAP (GALIUM APARINE; Rate 0.500 kg/ha) was 5.5, the GALAP herbicidal rating (GALIUM APARINE; Rate 0.500 kg/ha) was 6.0 and the GALAP (GALIUM APARINE; Rate 1.000 kg/ha) was 5.0. It also gave a GLXMAW ([4]; Rate 0.125 kg/ha) of 0.0, a GLXMAW herbicidal rating ([4]; Rate 0.125 kg/ha) of 0.0 and a GLXMAW ([4]; Rate 0.250 kg/ha) of 1.0. The GLXMAW herbicidal rating ([4]; Rate 0.250 kg/ha) was 1.0, the GLXMAW ([4]; Rate 1.000 kg/ha) was 0.0 and the TRZAWO ([5]; Rate 0.125 kg/ha) was 0.0. For the same substance, the TRZAWO herbicidal rating ([5]; Rate 0.125 kg/ha) was 0.0, the TRZAWO ([5]; Rate 0.250 kg/ha) was 0.0 and the TRZAWO herbicidal rating ([5]; Rate 0.250 kg/ha) was 0.0. The TRZAWO ([5]; Rate 0.500 kg/ha) was 1.0, the TRZAWO herbicidal rating ([5]; Rate 0.500 kg/ha) was 1.0 and the TRZAWO ([5]; Rate 1.000 kg/ha) was 1.0. The ZEAMX (ZEA MAYS L.; Rate 0.125 kg/ha) was 0.0, the ZEAMX herbicidal rating (ZEA MAYS L.; Rate 0.125 kg/ha) was 0.0 and the ZEAMX (ZEA MAYS L.; Rate 0.250 kg/ha) was 0.0. For the same substance, the ZEAMX herbicidal rating (ZEA MAYS L.; Rate 0.250 kg/ha) was 0.0, the ZEAMX (ZEA MAYS L.; Rate 0.500 kg/ha) was 1.0 and the ZEAMX herbicidal rating (ZEA MAYS L.; Rate 0.500 kg/ha) was 1.0. The ZEAMX (ZEA MAYS L.; Rate 1.000 kg/ha) was 1.0, the “Herbicidal effect rating, ECHORC” value ([6]; 0.063 kg/ha) was 0.0 and the “Herbicidal effect rating, ECHORC” value ([6]; 0.125 kg/ha) was 0.0. For the same substance, the “Herbicidal effect rating, ECHORC” value ([6]; 0.250 kg/ha) was 2.0, the “Herbicidal effect rating, ECHORC” value ([6]; 0.500 kg/ha) was 8.0 and the ECHORC ([6]; Rate 0.250 kg/ha) was 2.0. The ECHORC ([6]; Rate 0.500 kg/ha) was 8.5, the ECHORC ([6]; Rate 1.000 kg/ha) was 7.0 and the “Herbicidal effect rating, CYPIR” value (CYPERUS IRIA; 0.063 kg/ha) was 0.0. The “Herbicidal effect rating, CYPIR” value (CYPERUS IRIA; 0.125 kg/ha) was 0.0, the “Herbicidal effect rating, CYPIR” value (CYPERUS IRIA; 0.250 kg/ha) was 0.0 and the “Herbicidal effect rating, CYPIR” value (CYPERUS IRIA; 0.500 kg/ha) was 4.0. It also gave a CYPIR (CYPERUS IRIA; Rate 0.250 kg/ha) of 0.0, a CYPIR (CYPERUS IRIA; Rate 0.500 kg/ha) of 6.5 and a CYPIR (CYPERUS IRIA; Rate 1.000 kg/ha) of 7.0. For the same substance, the “Herbicidal effect rating, CYPSE” value ([7]; 0.063 kg/ha) was 0.0, the “Herbicidal effect rating, CYPSE” value ([7]; 0.125 kg/ha) was 0.0 and the “Herbicidal effect rating, CYPSE” value ([7]; 0.250 kg/ha) was 0.0. The “Herbicidal effect rating, CYPSE” value ([7]; 0.500 kg/ha) was 0.0, the CYPSE ([7]; Rate 0.250 kg/ha) was 0.0 and the CYPSE ([7]; Rate 0.500 kg/ha) was 0.0. For the same substance, the CYPSE ([7]; Rate 1.000 kg/ha) was 0.0, the “Herbicidal effect rating, MOOVA” value ([…], PRESL.; 0.063 kg/ha) was 0.0 and the “Herbicidal effect rating, MOOVA” value ([…], PRESL.; 0.125 kg/ha) was 0.0. The “Herbicidal effect rating, MOOVA” value ([…], PRESL.; 0.250 kg/ha) was 2.0, the “Herbicidal effect rating, MOOVA” value ([…], PRESL.; 0.500 kg/ha) was 9.0 and the MOOVA ([…], PRESL.; Rate 0.250 kg/ha) was 2.0. The MOOVA ([…], PRESL.; Rate 0.500 kg/ha) was 9.0, the MOOVA ([…], PRESL.; Rate 1.000 kg/ha) was 9.0 and the “Herbicidal effect rating, SAGPY” value (SAGITTARIA PYGMAEA, L.; 0.063 kg/ha) was 0.0. For the same substance, the “Herbicidal effect rating, SAGPY” value (SAGITTARIA PYGMAEA, L.; 0.125 kg/ha) was 0.0, the “Herbicidal effect rating, SAGPY” value (SAGITTARIA PYGMAEA, L.; 0.250 kg/ha) was 0.0 and the “Herbicidal effect rating, SAGPY” value (SAGITTARIA PYGMAEA, L.; 0.500 kg/ha) was 0.0. The SAGPY (SAGITTARIA PYGMAEA, L.; Rate 0.250 kg/ha) was 0.0, the SAGPY (SAGITTARIA PYGMAEA, L.; Rate 0.500 kg/ha) was 0.0 and the SAGPY (SAGITTARIA PYGMAEA, L.; Rate 1.000 kg/ha) was 0.0.
